Source: PMC11864979, “First-in-class ultralong-target-residence-time p38α inhibitors as a mitosis-targeted therapy for colorectal cancer” (Nature Cancer, 2025)
Where two headings read alike, the source gives them in different places.

What was measured:
Assay in all cases: selectivity profiling in a panel of 340 wild-type kinases (Reaction Biology Europe)
Type in all cases: binding
340 wild-type kinases [1] = biological target: T1, 340 wild-type kinases (Homo sapiens, UniProt P11309)
T1 construct: purchased Reaction Biology Europe
T1 sequence (P11309 whole entry): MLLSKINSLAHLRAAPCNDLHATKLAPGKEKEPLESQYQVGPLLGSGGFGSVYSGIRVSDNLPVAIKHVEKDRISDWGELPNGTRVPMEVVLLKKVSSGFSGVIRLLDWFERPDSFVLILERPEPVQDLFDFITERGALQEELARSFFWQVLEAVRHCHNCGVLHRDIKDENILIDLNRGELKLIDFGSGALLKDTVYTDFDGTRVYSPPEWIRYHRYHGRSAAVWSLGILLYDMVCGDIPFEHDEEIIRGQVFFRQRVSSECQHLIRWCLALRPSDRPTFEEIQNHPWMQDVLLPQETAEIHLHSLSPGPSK

340 wild-type kinases [2] = biological target: T2, 340 wild-type kinases (Homo sapiens, UniProt P53355)
T2 construct: purchased Reaction Biology Europe
T2 sequence (P53355 whole entry): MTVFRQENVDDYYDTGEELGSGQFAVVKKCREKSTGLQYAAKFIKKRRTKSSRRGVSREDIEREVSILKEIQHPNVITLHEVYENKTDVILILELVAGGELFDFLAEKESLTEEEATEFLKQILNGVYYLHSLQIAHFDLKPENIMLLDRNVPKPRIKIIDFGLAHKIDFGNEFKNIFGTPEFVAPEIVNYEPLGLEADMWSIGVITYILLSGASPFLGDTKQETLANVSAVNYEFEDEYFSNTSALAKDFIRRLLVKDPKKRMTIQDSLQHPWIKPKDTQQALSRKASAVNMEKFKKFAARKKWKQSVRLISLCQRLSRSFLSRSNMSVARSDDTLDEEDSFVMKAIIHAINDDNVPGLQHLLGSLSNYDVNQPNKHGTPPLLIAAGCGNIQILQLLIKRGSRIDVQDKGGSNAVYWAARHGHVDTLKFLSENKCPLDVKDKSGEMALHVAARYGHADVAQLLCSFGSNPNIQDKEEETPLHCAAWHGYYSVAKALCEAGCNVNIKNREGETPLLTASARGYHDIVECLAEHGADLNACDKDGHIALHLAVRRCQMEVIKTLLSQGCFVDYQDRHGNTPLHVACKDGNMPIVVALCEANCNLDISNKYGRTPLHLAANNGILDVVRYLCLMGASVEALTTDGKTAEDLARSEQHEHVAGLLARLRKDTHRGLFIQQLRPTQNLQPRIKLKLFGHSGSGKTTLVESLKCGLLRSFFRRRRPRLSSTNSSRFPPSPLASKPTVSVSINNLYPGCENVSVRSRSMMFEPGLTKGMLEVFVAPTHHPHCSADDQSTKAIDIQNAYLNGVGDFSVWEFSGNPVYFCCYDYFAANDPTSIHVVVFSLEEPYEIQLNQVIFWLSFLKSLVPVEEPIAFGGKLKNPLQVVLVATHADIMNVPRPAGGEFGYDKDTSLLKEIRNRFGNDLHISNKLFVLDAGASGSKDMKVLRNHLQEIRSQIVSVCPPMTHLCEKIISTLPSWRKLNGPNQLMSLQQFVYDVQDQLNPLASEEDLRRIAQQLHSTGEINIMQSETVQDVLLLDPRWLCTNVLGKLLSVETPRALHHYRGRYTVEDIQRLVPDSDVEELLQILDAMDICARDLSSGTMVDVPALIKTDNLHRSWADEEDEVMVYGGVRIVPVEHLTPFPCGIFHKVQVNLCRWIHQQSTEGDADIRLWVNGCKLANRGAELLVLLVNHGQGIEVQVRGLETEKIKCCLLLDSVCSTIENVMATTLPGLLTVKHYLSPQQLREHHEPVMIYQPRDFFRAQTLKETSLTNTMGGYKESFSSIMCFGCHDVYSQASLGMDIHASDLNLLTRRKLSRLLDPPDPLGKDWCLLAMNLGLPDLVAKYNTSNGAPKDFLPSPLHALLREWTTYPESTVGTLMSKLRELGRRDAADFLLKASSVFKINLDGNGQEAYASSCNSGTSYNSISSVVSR

340 wild-type kinases [3] = biological target: T3, 340 wild-type kinases (Homo sapiens, UniProt P15056)
T3 construct: purchased Reaction Biology Europe
T3 sequence (P15056 whole entry): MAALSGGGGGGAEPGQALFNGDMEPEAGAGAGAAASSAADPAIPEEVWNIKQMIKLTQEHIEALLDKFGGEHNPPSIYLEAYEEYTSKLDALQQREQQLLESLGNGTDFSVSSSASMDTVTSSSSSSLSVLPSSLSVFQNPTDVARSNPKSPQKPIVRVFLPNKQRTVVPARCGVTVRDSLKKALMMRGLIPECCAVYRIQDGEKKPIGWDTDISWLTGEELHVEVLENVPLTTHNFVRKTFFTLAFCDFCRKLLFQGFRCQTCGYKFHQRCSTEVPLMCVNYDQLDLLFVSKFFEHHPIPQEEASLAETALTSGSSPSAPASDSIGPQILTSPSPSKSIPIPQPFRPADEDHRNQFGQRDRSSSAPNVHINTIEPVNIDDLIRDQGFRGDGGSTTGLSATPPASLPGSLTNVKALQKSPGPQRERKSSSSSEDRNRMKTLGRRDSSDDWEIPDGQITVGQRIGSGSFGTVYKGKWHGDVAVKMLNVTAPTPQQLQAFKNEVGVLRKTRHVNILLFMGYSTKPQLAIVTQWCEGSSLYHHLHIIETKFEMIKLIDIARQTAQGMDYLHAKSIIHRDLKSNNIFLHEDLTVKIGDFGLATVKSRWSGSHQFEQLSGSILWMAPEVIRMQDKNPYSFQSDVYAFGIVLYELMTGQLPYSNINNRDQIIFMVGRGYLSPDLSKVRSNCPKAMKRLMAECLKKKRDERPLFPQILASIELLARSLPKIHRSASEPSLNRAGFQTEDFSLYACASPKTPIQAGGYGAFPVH

340 wild-type kinases [4] = biological target: T4, 340 wild-type kinases (Homo sapiens, UniProt P41743)
T4 construct: purchased Reaction Biology Europe
T4 sequence (P41743 1-596): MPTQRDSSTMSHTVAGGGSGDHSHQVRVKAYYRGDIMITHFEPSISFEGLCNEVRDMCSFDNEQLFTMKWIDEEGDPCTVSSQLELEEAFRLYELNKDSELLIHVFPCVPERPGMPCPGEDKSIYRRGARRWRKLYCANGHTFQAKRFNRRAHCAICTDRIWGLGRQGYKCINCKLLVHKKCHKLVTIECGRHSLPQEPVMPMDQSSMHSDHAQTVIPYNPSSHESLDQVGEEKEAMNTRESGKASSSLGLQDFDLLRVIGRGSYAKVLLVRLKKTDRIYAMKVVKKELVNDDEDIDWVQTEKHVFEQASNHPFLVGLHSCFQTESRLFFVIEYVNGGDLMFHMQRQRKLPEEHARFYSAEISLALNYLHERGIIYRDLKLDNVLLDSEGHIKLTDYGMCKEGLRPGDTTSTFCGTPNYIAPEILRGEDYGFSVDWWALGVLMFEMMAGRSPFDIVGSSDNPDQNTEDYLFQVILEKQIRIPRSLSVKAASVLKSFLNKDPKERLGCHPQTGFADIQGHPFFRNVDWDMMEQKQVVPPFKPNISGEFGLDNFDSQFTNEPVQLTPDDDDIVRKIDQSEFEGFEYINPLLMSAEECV

340 wild-type kinases [5] = biological target: T5, 340 wild-type kinases (Homo sapiens, UniProt P14616)
T5 construct: purchased Reaction Biology Europe
T5 sequence (P14616 27-1297): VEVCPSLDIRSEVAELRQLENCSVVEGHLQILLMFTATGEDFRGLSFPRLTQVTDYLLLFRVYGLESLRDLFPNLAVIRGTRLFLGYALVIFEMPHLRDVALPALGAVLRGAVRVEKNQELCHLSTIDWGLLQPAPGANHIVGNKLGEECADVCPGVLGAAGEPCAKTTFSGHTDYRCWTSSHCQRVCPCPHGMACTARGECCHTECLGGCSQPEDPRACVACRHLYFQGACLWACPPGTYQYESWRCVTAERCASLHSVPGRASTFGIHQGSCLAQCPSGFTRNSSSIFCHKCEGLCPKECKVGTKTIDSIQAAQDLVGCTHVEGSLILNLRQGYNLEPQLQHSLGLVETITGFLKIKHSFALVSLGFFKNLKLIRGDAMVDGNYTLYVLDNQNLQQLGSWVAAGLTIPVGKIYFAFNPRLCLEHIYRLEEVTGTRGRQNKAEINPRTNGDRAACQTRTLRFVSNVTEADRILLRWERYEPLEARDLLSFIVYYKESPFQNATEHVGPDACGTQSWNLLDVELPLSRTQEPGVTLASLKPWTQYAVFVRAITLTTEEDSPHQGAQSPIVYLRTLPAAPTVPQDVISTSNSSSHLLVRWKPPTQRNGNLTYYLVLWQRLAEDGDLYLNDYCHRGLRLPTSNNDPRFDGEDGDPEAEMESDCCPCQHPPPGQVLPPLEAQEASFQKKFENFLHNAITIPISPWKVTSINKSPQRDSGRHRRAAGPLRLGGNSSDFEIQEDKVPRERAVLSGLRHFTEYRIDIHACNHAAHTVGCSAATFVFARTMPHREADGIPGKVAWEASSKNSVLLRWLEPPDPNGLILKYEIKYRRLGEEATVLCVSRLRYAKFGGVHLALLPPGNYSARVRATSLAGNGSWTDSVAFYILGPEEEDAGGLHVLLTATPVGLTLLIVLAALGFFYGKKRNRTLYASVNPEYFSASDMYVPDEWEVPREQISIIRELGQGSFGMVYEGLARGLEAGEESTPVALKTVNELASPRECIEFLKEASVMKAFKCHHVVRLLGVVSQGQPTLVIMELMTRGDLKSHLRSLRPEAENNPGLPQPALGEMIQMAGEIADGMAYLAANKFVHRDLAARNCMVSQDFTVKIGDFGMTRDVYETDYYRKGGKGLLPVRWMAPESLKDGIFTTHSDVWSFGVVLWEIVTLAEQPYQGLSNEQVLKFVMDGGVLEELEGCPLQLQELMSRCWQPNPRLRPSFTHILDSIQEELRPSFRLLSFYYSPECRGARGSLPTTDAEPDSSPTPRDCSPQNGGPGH

340 wild-type kinases [6] = biological target: T6, 340 wild-type kinases (Homo sapiens, UniProt Q02750)
T6 construct: purchased Reaction Biology Europe
T6 sequence (Q02750 whole entry): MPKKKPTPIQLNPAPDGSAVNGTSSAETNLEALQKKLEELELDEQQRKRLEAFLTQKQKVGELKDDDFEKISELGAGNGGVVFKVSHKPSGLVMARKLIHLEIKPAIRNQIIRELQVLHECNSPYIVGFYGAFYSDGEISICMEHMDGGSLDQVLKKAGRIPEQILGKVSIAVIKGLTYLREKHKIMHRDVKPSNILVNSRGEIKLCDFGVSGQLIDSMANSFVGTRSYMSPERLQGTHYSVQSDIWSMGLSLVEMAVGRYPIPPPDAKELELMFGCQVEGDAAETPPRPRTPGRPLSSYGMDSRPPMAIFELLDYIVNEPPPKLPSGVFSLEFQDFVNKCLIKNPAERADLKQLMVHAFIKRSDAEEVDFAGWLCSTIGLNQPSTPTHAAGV

340 wild-type kinases [7] = biological target: T7, 340 wild-type kinases (Homo sapiens, UniProt Q9NWZ3)
T7 construct: purchased Reaction Biology Europe
T7 sequence (Q9NWZ3 1-460): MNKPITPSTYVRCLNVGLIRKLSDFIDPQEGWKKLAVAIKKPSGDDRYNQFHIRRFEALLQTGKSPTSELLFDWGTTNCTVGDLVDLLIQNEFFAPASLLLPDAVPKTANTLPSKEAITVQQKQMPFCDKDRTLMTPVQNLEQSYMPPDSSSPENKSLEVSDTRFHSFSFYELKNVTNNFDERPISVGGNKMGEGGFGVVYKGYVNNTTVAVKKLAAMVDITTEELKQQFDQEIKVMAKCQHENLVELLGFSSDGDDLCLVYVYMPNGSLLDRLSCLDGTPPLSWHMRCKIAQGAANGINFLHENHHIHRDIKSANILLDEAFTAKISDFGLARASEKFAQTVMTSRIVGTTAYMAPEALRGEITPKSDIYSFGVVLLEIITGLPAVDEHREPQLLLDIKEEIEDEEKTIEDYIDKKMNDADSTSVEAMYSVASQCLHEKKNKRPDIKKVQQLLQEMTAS

340 wild-type kinases [8] = biological target: T8, 340 wild-type kinases (Homo sapiens, UniProt Q8TF76)
T8 construct: purchased Reaction Biology Europe
T8 sequence (Q8TF76 1-798): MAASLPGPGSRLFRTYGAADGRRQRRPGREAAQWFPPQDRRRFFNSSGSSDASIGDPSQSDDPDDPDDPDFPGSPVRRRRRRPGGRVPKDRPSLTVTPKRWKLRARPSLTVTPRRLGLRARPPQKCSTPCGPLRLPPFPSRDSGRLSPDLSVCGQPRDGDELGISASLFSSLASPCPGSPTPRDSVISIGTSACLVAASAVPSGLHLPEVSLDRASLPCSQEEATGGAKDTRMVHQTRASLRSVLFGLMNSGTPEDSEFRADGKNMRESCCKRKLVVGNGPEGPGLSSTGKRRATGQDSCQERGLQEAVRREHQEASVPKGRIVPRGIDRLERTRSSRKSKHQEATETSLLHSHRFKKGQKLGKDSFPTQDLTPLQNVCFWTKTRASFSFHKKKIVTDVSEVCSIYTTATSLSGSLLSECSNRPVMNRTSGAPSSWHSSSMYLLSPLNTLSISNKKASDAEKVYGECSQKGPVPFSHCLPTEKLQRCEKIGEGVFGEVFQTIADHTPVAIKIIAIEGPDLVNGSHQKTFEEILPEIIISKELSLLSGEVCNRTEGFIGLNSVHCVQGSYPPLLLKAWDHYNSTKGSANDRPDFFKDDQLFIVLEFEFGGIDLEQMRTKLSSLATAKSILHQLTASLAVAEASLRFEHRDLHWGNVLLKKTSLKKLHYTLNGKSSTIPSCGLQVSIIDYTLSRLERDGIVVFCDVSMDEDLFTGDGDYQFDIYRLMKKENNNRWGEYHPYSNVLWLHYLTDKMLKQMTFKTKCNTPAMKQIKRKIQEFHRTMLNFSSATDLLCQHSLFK

340 wild-type kinases [9] = biological target: T9, 340 wild-type kinases (Homo sapiens, UniProt Q9BYT3)
T9 construct: purchased Reaction Biology Europe
T9 sequence (Q9BYT3 whole entry): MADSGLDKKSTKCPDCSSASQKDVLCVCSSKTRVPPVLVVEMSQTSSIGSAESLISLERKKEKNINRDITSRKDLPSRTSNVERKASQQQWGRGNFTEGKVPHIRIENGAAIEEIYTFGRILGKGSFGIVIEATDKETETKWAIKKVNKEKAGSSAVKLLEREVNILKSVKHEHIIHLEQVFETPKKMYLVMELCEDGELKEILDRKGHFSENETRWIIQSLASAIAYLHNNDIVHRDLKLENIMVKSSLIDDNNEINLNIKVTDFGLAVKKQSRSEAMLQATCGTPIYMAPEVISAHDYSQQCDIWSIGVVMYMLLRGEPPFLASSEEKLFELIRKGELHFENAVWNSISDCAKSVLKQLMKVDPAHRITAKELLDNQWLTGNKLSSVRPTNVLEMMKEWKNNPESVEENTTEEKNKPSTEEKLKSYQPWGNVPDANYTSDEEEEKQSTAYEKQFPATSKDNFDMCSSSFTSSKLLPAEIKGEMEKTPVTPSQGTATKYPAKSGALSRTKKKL

CNC(=O)c1ccc2c(c1)C(=O)c1ccc(Nc3ccc(F)c(NC(=O)C4CC4)c3)cc1CC2 [Compound 2015]
remaining activity at 0.2 µM (340 wild-type kinases [1]; 0.2 µM 2015, read-out: PIM1 residual activity): 88.3% | remaining activity at 1 µM (340 wild-type kinases [1]; 1 µM 2015, read-out: PIM1 residual activity): 91% | remaining activity at 0.2 µM (340 wild-type kinases [1]; PIM1, 0.2 µM, read-out: residual activity): 88.3% | remaining activity at 1 µM (340 wild-type kinases [1]; PIM1, 1 µM, read-out: residual activity): 91% | remaining activity at 0.2 µM (340 wild-type kinases [2]; 0.2 µM 2015, read-out: DAPK1 residual activity): 128% | remaining activity at 1 µM (340 wild-type kinases [2]; 1 µM 2015, read-out: DAPK1 residual activity): 135% | remaining activity at 0.2 µM (340 wild-type kinases [2]; DAPK1, 0.2 µM, read-out: residual activity): 128% | remaining activity at 1 µM (340 wild-type kinases [2]; DAPK1, 1 µM, read-out: residual activity): 135% | remaining activity at 0.2 µM (340 wild-type kinases [3]; 0.2 µM 2015, read-out: BRAF residual activity): 93.9% | remaining activity at 1 µM (340 wild-type kinases [3]; 1 µM 2015, read-out: BRAF residual activity): 104% | remaining activity at 0.2 µM (340 wild-type kinases [3]; BRAF, 0.2 µM, read-out: residual activity): 94% | remaining activity at 1 µM (340 wild-type kinases [3]; BRAF, 1 µM, read-out: residual activity): 104% | remaining activity at 0.2 µM (340 wild-type kinases [4]; 0.2 µM 2015, read-out: PKCiota residual activity): 104% | remaining activity at 1 µM (340 wild-type kinases [4]; 1 µM 2015, read-out: PKCiota residual activity): 92% | remaining activity at 0.2 µM (340 wild-type kinases [4]; PKCiota, 0.2 µM, read-out: residual activity): 104% | remaining activity at 1 µM (340 wild-type kinases [4]; PKCiota, 1 µM, read-out: residual activity): 92% | remaining activity at 0.2 µM (340 wild-type kinases [5]; 0.2 µM 2015, read-out: INSRR residual activity): 96% | remaining activity at 1 µM (340 wild-type kinases [5]; 1 µM 2015, read-out: INSRR residual activity): 97.4% | remaining activity at 0.2 µM (340 wild-type kinases [5]; INSRR, 0.2 µM, read-out: residual activity): 96% | remaining activity at 1 µM (340 wild-type kinases [5]; INSRR, 1 µM, read-out: residual activity): 97.4% | remaining activity at 0.2 µM (340 wild-type kinases [6]; 0.2 µM 2015, read-out: MEK1 residual activity): 105% | remaining activity at 1 µM (340 wild-type kinases [6]; 1 µM 2015, read-out: MEK1 residual activity): 99.8% | remaining activity at 0.2 µM (340 wild-type kinases [6]; MEK1, 0.2 µM, read-out: residual activity): 105% | remaining activity at 1 µM (340 wild-type kinases [6]; MEK1, 1 µM, read-out: residual activity): 99.8% | remaining activity at 0.2 µM (340 wild-type kinases [7]; 0.2 µM 2015, read-out: IRAK4 residual activity): 96.5% | remaining activity at 1 µM (340 wild-type kinases [7]; 1 µM 2015, read-out: IRAK4 residual activity): 93.5% | remaining activity at 0.2 µM (340 wild-type kinases [7]; IRAK4, 0.2 µM, read-out: residual activity): 96.5% | remaining activity at 1 µM (340 wild-type kinases [7]; IRAK4, 1 µM, read-out: residual activity): 93.5% | remaining activity at 0.2 µM (340 wild-type kinases [8]; 0.2 µM 2015, read-out: GSG2 residual activity): 105% | remaining activity at 1 µM (340 wild-type kinases [8]; 1 µM 2015, read-out: GSG2 residual activity): 82.5% | remaining activity at 0.2 µM (340 wild-type kinases [8]; GSG2, 0.2 µM, read-out: residual activity): 105% | remaining activity at 1 µM (340 wild-type kinases [8]; GSG2, 1 µM, read-out: residual activity): 82.5% | remaining activity at 0.2 µM (340 wild-type kinases [9]; 0.2 µM 2015, read-out: STK33 residual activity): 99.1% | remaining activity at 1 µM (340 wild-type kinases [9]; 1 µM 2015, read-out: STK33 residual activity): 96.3% | remaining activity at 0.2 µM (340 wild-type kinases [9]; STK33, 0.2 µM, read-out: residual activity): 99.1% | remaining activity at 1 µM (340 wild-type kinases [9]; STK33, 1 µM, read-out: residual activity): 96.3%
